Test results taken from patent publication US20060121449A1, “Method for selection of compounds which inhibit clonal cell growth and use thereof” (priority 2002, published 2006).
Entries after “also recorded” stand apart in the source; their conditions may differ. Starred links: 1 amine or outer side, 2 acyl side, 3 side chain; linkers in the order of their positions; H or OH if unused. Positions of bridges follow the written chain, without caps; N, C: chain ends. Non-standard residues stand in square brackets, D forms with d. Residues, ends and D or L forms follow the SMILES beside them. Chains are numbered I, II in the order given. Actinocin(9to1) = Cc1c2oc3c(C)ccc(C(=O)[*:1])c3nc-2c(C(=O)[*:2])c(N)c1=O; NMeV = CN[C@H](C(=O)O)C(C)C; Sar = CNCC(=O)O

Tested on: polyoma virus transformed BHK21/c13 cells, line S100T1
Assay: Collocation inhibition test: clonal growth in sparsely and densely seeded areas of a cell density gradient of S100T1 cells in soft agar (Exp 13, 17, 19-26);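 note: soft agar cultures in 24-well plates with a cell density gradient in the top layer, compounds applied from DMSO stocks, clonal growth scored in sparse versus dense areas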;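 for Clonal growth, H high density area of cell gradient, High: grades rise with clonal growth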;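 for Clonal growth, H high density area of cell gradient, Low: grades rise with clonal growth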;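 for Clonal growth, H high density area of cell gradient, Medium: grades rise with clonal growth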;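 for Clonal growth, L low density area of cell gradient, High: grades rise with clonal growth and minus or plus-minus means none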;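 for Clonal growth, L low density area of cell gradient, Low: grades rise with clonal growth and minus or plus-minus means none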;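 for Clonal growth, L low density area of cell gradient, Medium: grades rise with clonal growth and minus or plus-minus means none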
Conditions: for Clonal growth, H: high density area of cell gradient, High / Clonal growth, L: low density area of cell gradient, High / Clonal growth, H: high density area of cell gradient, Low / Clonal growth, L: low density area of cell gradient, Low / Clonal growth, H: high density area of cell gradient, Medium / Clonal growth, L: low density area of cell gradient, Medium: 4-OH-OPB analogues, S100T1 in soft agar; for Clonal growth, H: high density area of cell gradient, High / Clonal growth, L: low density area of cell gradient, High / Clonal growth, H high density area of cell gradient, High / Clonal growth, L low density area of cell gradient, High: high concentration; for Clonal growth, H: high density area of cell gradient, Low / Clonal growth, L: low density area of cell gradient, Low / Clonal growth, H high density area of cell gradient, Low / Clonal growth, L low density area of cell gradient, Low: low concentration; for Clonal inhibition by 4-OH-OPB analogues, summary of Exp 22-25: sparsely seeded areas while densely seeded areas of the same culture showed significant growth; for Clonal growth, H high density area of cell gradient, High / Clonal growth, L low density area of cell gradient, High / Clonal growth, H high density area of cell gradient, Low / Clonal growth, L low density area of cell gradient, Low / Clonal growth, H high density area of cell gradient, Medium / Clonal growth, L low density area of cell gradient, Medium / Effect on cell cloning in soft agar: preliminary results; for Clonal growth, H high density area of cell gradient, High / Clonal growth, L low density area of cell gradient, High / Clonal growth, H high density area of cell gradient, Low / Clonal growth, L low density area of cell gradient, Low / Clonal growth, H high density area of cell gradient, Medium / Clonal growth, L low density area of cell gradient, Medium: Exp 13-18, 21-26; for Effect on cell cloning in soft agar: in words; for Resulting clonal growth of treated cultures: Experiment 26, read after 24 hours
[1] = Experiment 25, H: area with high cell density, Low concentration, after 48 hours incubation
[2] = Experiment 25, H: area with high cell density, Medium concentration, after 48 hours incubation
[3] = Experiment 25, L: area with low cell density, High concentration, after 48 hours incubation
[4] = Experiment 25, L: area with low cell density, Low concentration, after 48 hours incubation
[5] = Experiment 25, L: area with low cell density, Medium concentration, after 48 hours incubation
[6] = Summary Table 3 of analogue tests (experiments 22-25), H (high cell density), Low concentration
[7] = Summary Table 3 of analogue tests (experiments 22-25), H (high cell density), Medium concentration
[8] = Summary Table 3 of analogue tests (experiments 22-25), L (low cell density), High concentration
[9] = Summary Table 3 of analogue tests (experiments 22-25), L (low cell density), Low concentration
[10] = Summary Table 3 of analogue tests (experiments 22-25), L (low cell density), Medium concentration
[11] = Experiment 25, H: area with high cell density, High concentration, after 48 hours incubation

Compound | Clonal growth, H: high density area of cell gradient, High | Clonal growth, L: low density area of cell gradient, High | Clonal growth, H: high density area of cell gradient, Low | Clonal growth, L: low density area of cell gradient, Low | Clonal growth, H: high density area of cell gradient, Medium (medium concentration) | Clonal growth, L: low density area of cell gradient, Medium (medium concentration) | Clonal growth [1] | Clonal growth [2] | Clonal growth [3] | Clonal growth [4] | Clonal growth [5] | Clonal growth [6] | Clonal growth [7] | Clonal growth, H high density area of cell gradient, High | Clonal growth, L low density area of cell gradient, High | Clonal growth, H high density area of cell gradient, Low | Clonal growth, L low density area of cell gradient, Low | Clonal growth, H high density area of cell gradient, Medium (medium concentration) | Clonal growth, L low density area of cell gradient, Medium (medium concentration) | Effect on cell cloning in soft agar | further results
4-hydroxy-4-aldehyd-1,2-diphenyl-pyrazolidinedione [#10] | ((+)) | − | ++ | ++ | ++ | − | ++ | ++ | − | ++ | − | ++ | ++ |  |  |  |  |  |  |  | Concentration inhibiting clonal growth of sparsely seeded cells without affecting densely seeded areas (Exp 25, medium concentration, 180000 S100T1 cells/well): about 50 μM; Clonal growth [8]: −; Clonal growth [9]: ++; Clonal growth [10]: −; Clonal inhibition by 4-OH-OPB analogues, summary of Exp 22-25 (listed as # 10): complete inhibition of growth in sparsely seeded areas
CCCCC1(O)C(=O)N(c2ccccc2)N(c2ccccc2)C1=O [#11, 4-butyl-4-hydoxy-1,2-diphenyl-3,5-pyrazolidnedione] | ++(+) | ++ | ++ | ++ | ++ | ++ | ++ | ++ | ++ | ++ | ++ | ++ | ++ |  |  |  |  |  |  |  | Effect on clonal growth (Exp 25, 48 hours incubation): did not show any growth inhibition; also recorded: high concentration might stimulate growth in densely seeded areas; Clonal growth [11]: ++(+); Clonal growth (Summary Table 3 of analogue tests (experiments 22-25), H (high cell density), High concentration): ++(+); Clonal growth [8]: ++; Clonal growth [9]: ++; Clonal growth [10]: ++; Clonal inhibition by 4-OH-OPB analogues, summary of Exp 22-25: possible stimulation at high concentration
Cc1c2oc3c(C)ccc(C(=O)N[C@@H]4C(=O)N[C@H](C(C)C)C(=O)N5CCC[C@H]5C(=O)N(C)CC(=O)N(C)[C@@H](C(C)C)C(=O)O[C@@H]4C)c3nc-2c(C(=O)N[C@@H]2C(=O)N[C@H](C(C)C)C(=O)N3CCC[C@H]3C(=O)N(C)CC(=O)N(C)[C@@H](C(C)C)C(=O)O[C@@H]2C)c(N)c1=O [Actino-mycin D, Actinomycin D, reference compound] (I: T[dV]P[Sar][NMeV] / II: T[dV]P[Sar][NMeV]; ester I:1-I:C, II:1-II:C; linker I:N-II:N via Actinocin(9to1)) |  |  |  |  |  |  |  |  |  |  |  |  |  | + | ((+)) | ++ | + | ++ | (+) | Good, but not complete inhibition | Effect on clonal growth and toxicity (Exp 21, 117000 S100T1 cells/well): good, but probably no complete inhibition of clonal growth at low toxicity; also recorded: no absolute clonal inhibition of sparsely seeded cells; also recorded: There was signs of good, but not complete; Clonal growth (Exp 21, 117000 cells per well, Low concentration (see figure), H: area with high cell density): ++; Clonal growth (Exp 21, High concentration, H: area with high cell density): +; Clonal growth (Exp 21, Low concentration, L: area with low cell density): +; Clonal growth (Exp 21, Medium concentration, H: area with high cell density): ++; Clonal growth (Exp 21, Medium concentration, L: area with low cell density): (+)
CN(C)c1nc(N(C)C)nc(N(C)C)n1 [Altretamine, reference compound] |  |  |  |  |  |  |  |  |  |  |  |  |  | ++ | ++ | ++ | ++ | ++ | ++ | No effect | Effect on clonal growth (Exp 26): No effect on cell growth was observed; also recorded: carcinoma in mice. Altretamine had no effect; Resulting clonal growth of treated cultures (H: area with high cell density, High concentration): ++; Resulting clonal growth of treated cultures (H: area with high cell density, Low concentration): ++; Resulting clonal growth of treated cultures (H: area with high cell density, Medium concentration): ++; Resulting clonal growth of treated cultures (L: area with low cell density, High concentration): ++; Resulting clonal growth of treated cultures (L: area with low cell density, Low concentration): ++; Resulting clonal growth of treated cultures (L: area with low cell density, Medium concentration): ++
Cn1cnc([N+](=O)[O-])c1Sc1ncnc2nc[nH]c12 [Azathioprin, reference compound] |  |  |  |  |  |  | ++ | ++ | ++ | ++ | ++ |  |  | ++ | ++ | ++ | ++ | ++ | ++ | No effect | Effect on clonal growth (Exp 25, 48 hours incubation): no clonal inhibition or stimulation; Clonal growth [11]: ++
